Measured values from US9663525B2, “Pyrazolopyrimidinyl inhibitors of ubiquitin-activating enzyme” (Millennium Pharmaceuticals, Inc., priority 2012, dated 2017).
pIC50: −log10 of the molar value.

These molecules were tested against recombinant human UAE (Homo sapiens (Human), UniProt P22314) (assay: Ubiquitin Activating Enzyme (UAE) HTRF assay, human UAE). Conditions: not given.
Sequence of recombinant human UAE (P22314 whole entry): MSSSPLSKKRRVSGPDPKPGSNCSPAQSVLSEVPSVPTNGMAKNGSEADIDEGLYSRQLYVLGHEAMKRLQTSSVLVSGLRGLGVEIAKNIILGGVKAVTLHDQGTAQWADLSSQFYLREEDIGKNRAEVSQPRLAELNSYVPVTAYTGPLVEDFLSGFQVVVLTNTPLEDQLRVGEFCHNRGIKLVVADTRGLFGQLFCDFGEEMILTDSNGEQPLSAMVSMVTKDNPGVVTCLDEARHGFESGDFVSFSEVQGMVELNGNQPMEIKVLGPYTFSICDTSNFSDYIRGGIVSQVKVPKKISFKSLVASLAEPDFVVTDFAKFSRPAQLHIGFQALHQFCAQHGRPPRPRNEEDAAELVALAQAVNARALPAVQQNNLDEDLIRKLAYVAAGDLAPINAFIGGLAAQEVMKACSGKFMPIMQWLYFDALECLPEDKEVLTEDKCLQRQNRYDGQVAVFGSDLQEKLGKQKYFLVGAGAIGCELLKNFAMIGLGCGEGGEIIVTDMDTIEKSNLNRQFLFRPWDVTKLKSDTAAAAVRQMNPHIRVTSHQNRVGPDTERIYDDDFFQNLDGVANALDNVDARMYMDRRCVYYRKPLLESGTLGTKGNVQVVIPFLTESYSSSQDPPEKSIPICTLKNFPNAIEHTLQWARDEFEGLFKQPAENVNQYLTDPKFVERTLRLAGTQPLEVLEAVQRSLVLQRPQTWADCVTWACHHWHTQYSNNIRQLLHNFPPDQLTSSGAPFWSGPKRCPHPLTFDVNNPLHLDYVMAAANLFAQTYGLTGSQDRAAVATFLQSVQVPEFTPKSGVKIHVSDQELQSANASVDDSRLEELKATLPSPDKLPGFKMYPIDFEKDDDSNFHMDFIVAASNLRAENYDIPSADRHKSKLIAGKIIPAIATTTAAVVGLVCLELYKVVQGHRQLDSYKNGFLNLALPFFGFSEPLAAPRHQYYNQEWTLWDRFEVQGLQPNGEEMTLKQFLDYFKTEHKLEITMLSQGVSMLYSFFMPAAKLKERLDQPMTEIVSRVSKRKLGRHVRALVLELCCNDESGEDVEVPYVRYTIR

`NS(=O)(=O)OC[C@H]1C[C@@H](Nc2ccnc3cc(-c4cccc(N5CCCC5=O)c4)nn23)[C@H](O)[C@@H]1O` (racemic) [Compound I-087, (rac)-((1R,2R,3S,4R)-2,3-dihydroxy-4-(2-(3-(2-oxopyrrolidin-1-yl)phenyl)pyrazolo[1,5-a]pyrimidin-7-ylamino)cyclopentyl)methyl rel-sulfamate] and `CC(C)(c1cccc(-c2cc3nccc(N[C@@H]4C[C@H](COS(N)(=O)=O)[C@@H](O)[C@H]4O)n3n2)c1)C(F)(F)F` (racemic) [Compound I-058, (rac)-((1R,2R,3S,4R)-2,3-dihydroxy-4-(2-(3-(1,1,1-trifluoro-2-methylpropan-2-yl)phenyl)pyrazolo[1,5-a]pyrimidin-7-ylamino)cyclopentyl)methyl rel-sulfamate] cannot be ordered by pIC50: over 8.00 for the first, over 8.00 for the second.

`NS(=O)(=O)OC[C@H]1C[C@@H](Nc2ccnc3cc(-c4cccc5c4sc4ccccc45)nn23)[C@H](O)[C@@H]1O` (racemic) [Compound I-056, (rac)-((1R,2R,3S,4R)-4-((2-(Dibenzo[b,d]thiophen-4-yl)pyrazolo[1,5-a]pyrimidin-7-yl)amino)-2,3-dihydroxycyclopentyl)methyl rel-sulfamate] and `NS(=O)(=O)OC[C@H]1C[C@@H](Nc2ccnc3cc(-c4cccc5sccc45)nn23)[C@H](O)[C@@H]1O` (racemic) [Compound I-061, (rac)-((1R,2R,3S,4R)-4-((2-(Benzo[b]thiophen-4-yl)pyrazolo[1,5-a]pyrimidin-7-yl)amino)-2,3-dihydroxycyclopentyl)methyl rel-sulfamate] cannot be ordered by pIC50: over 8.00 for the first, over 8.00 for the second.

`NS(=O)(=O)OC[C@H]1C[C@@H](Nc2c(Cl)cnc3cc(-c4cccc(SC(F)(F)F)c4)nn23)[C@H](O)[C@@H]1O` [Compound I-125, (s.e.)-{(1R,2R,3S,4R)-4-[(6-chloro-2-{3-[(trifluoromethyl)sulfanyl]phenyl}pyrazolo[1,5-a]pyrimidin-7-yl)amino]-2,3-dihydroxycyclopentyl}methyl sulfamate] and `NS(=O)(=O)OC[C@H]1C[C@@H](Nc2c(Cl)cnc3c(Cl)c(-c4cccc(SC(F)(F)F)c4)nn23)[C@H](O)[C@@H]1O` [Compound I-124, (s.e.)-{(1R,2R,3S,4R)-4-[(3,6-dichloro-2-{3-[(trifluoromethyl)sulfanyl]phenyl}pyrazolo[1,5-a]pyrimidin-7-yl)amino]-2,3-dihydroxycyclopentyl}methyl sulfamate] fall in the same range of pIC50: 6.00 to 7.00 for the first, 6.00 to 7.00 for the second.

First: NS(=O)(=O)OC[C@H]1C[C@@H](Nc2ccnc3cc(-c4cnc5ccccc5c4)nn23)[C@H](O)[C@@H]1O (racemic) [Compound I-025, (rac)-((1R,2R,3S,4R)-2,3-dihydroxy-4-(2-(quinolin-3-yl)pyrazolo[1,5-a]pyrimidin-7-ylamino)cyclopentyl)methyl rel-sulfamate]
Second: NS(=O)(=O)OC[C@H]1C[C@@H](Nc2ccnc3cc(-c4ccc5ncccc5c4)nn23)[C@H](O)[C@@H]1O (racemic) [Compound I-034, (rac)-((1R,2R,3S,4R)-2,3-dihydroxy-4-(2-(quinolin-6-yl)pyrazolo[1,5-a]pyrimidin-7-ylamino)cyclopentyl)methyl rel-sulfamate]
The pIC50 of the first is lower: 7.00 to 8.00 for the first, over 8.00 for the second. The second is the more potent here.

`NS(=O)(=O)OC[C@H]1C[C@@H](Nc2ccnc3cc(-c4cc5ccccc5[nH]4)nn23)[C@H](O)[C@@H]1O` (racemic) [Compound I-024, (rac)-((1R,2R,3S,4R)-4-(2-(1H-indol-2-yl)pyrazolo[1,5-a]pyrimidin-7-ylamino)-2,3-dihydroxycyclopentyl)methyl rel-sulfamate] and `NS(=O)(=O)OC[C@H]1C[C@@H](Nc2ccnc3cc(-c4cncc5ccccc45)nn23)[C@H](O)[C@@H]1O` (racemic) [Compound I-018, (rac)-((1R,2R,3S,4R)-2,3-dihydroxy-4-(2-(isoquinolin-4-yl)pyrazolo[1,5-a]pyrimidin-7-ylamino)cyclopentyl)methyl rel-sulfamate] cannot be ordered by pIC50: over 8.00 for the first, over 8.00 for the second.

First: COc1cc(F)ccc1-c1cc2nccc(N[C@@H]3C[C@H](COS(N)(=O)=O)[C@@H](O)[C@H]3O)n2n1 (racemic) [Compound I-070, (rac)-((1R,2R,3S,4R)-4-(2-(4-fluoro-2-methoxyphenyl)pyrazolo[1,5-a]pyrimidin-7-ylamino)-2,3-dihydroxycyclopentyl)methyl rel-sulfamate]
Second: NS(=O)(=O)OC[C@H]1C[C@@H](Nc2ccnc3cc(-c4ccc(Cl)cc4Cl)nn23)[C@H](O)[C@@H]1O (racemic) [Compound I-013, (rac)-[(1R,2R,3S,4R)-4-{[2-(2,4-dichlorophenyl)pyrazolo[1,5-a]pyrimidin-7-yl]amino}-2,3-dihydroxycylopentyl]methyl rel-sulfamate]
The pIC50 of the first is higher: over 8.00 for the first, 7.00 to 8.00 for the second. The first is the more potent here.

`NS(=O)(=O)OC[C@H]1C[C@@H](Nc2cc(Cl)nc3cc(-c4ccc(Br)cc4)nn23)[C@H](O)[C@@H]1O` (racemic) [Compound I-008, (rac)-((1R,2R,3S,4R)-4-(2-(4-bromophenyl)-5-chloropyrazolo[1,5-a]pyrimidin-7-ylamino)-2,3-dihydroxycyclopentyl)methyl rel-sulfamate] and `NS(=O)(=O)OC[C@H]1C[C@@H](Nc2cc(Cl)nc3cc(-c4cccc5ccccc45)nn23)[C@H](O)[C@@H]1O` (racemic) [Compound I-009, (rac)-((1R,2R,3S,4R)-4-{[5-chloro-2-(1-naphthyl)pyrazolo[1,5-a]pyrimidin-7-yl]amino}-2,3-dihydroxycyclopentyl)methyl rel-sulfamate] fall in the same range of pIC50: 6.00 to 7.00 for the first, 6.00 to 7.00 for the second.

`NS(=O)(=O)OC[C@H]1C[C@@H](Nc2ccnc3cc(-c4cccc5cnccc45)nn23)[C@H](O)[C@@H]1O` (racemic) [Compound I-027, (rac)-((1R,2R,3S,4R)-2,3-dihydroxy-4-(2-(isoquinolin-5-yl)pyrazolo[1,5-a]pyrimidin-7-ylamino)cyclopentyl)methyl rel-sulfamate] and `NS(=O)(=O)OC[C@H]1C[C@@H](Nc2ccnc3cc(-c4ccc5cccnc5c4)nn23)[C@H](O)[C@@H]1O` (racemic) [Compound I-043, (rac)-((1R,2R,3S,4R)-2,3-dihydroxy-4-(2-(quinolin-7-yl)pyrazolo[1,5-a]pyrimidin-7-ylamino)cyclopentyl)methyl rel-sulfamate] cannot be ordered by pIC50: over 8.00 for the first, over 8.00 for the second.

`NS(=O)(=O)OC[C@H]1C[C@@H](Nc2ccnc3cc(-c4cccc(C(F)(F)F)n4)nn23)[C@H](O)[C@@H]1O` (racemic) [Compound I-064, (rac)-((1R,2R,3S,4R)-2,3-dihydroxy-4-(2-(6-(trifluoromethyl)pyridin-2-yl)pyrazolo[1,5-a]pyrimidin-7-ylamino)cyclopentyl)methyl rel-sulfamate] and `NS(=O)(=O)OC[C@H]1C[C@@H](Nc2ccnc3cc(-c4ccc(C(F)(F)F)s4)nn23)[C@H](O)[C@@H]1O` (racemic) [Compound I-060, (rac)-((1R,2R,3S,4R)-2,3-Dihydroxy-4-((2-(5-(trifluoromethyl)thiophen-2-yl)pyrazolo[1,5-a]pyrimidin-7-yl)amino)cyclopentyl)methyl rel-sulfamate] fall in the same range of pIC50: 7.00 to 8.00 for the first, 7.00 to 8.00 for the second.

`NS(=O)(=O)OC[C@H]1C[C@@H](Nc2ccnc3cc(-c4c[nH]c5ccc(Cl)cc45)nn23)[C@H](O)[C@@H]1O` (racemic) [Compound I-054, (rac)-[(1R,2R,3S,4R)-4-{[2-(5-chloro-1H-indol-3-yl)pyrazolo[1,5-a]pyrimidin-7-yl]amino}-2,3-dihydroxycyclopentyl]methyl rel-sulfamate] and `NS(=O)(=O)OC[C@H]1C[C@@H](Nc2ccnc3cc(-c4csc5ccc(Cl)cc45)nn23)[C@H](O)[C@@H]1O` (racemic) [Compound I-071, (rac)-((1R,2R,3S,4R)-4-(2-(5-chlorobenzo[b]thiophen-3-yl)pyrazolo[1,5-a]pyrimidin-7-ylamino)-2,3-dihydroxycyclopentyl)methyl rel-sulfamate] cannot be ordered by pIC50: over 8.00 for the first, over 8.00 for the second.

`NS(=O)(=O)OC[C@H]1C[C@@H](Nc2ccnc3cc(-c4ccc5[nH]c6ccccc6c5c4)nn23)[C@H](O)[C@@H]1O` (racemic) [Compound I-037, (rac)-[(1R,2R,3S,4R)-4-{[2-(9H-carbazol-3-yl)pyrazolo[1,5-a]pyrimidin-7-yl]amino}-2,3-dihydroxycyclopentyl]methyl rel-sulfamate] gave a pIC50 of over 8.00.

Same assay, conditions: 0.111 μM compound; human UAE

With `COc1ccc(C(C)(C)C)cc1-c1cc2nccc(N[C@@H]3C[C@H](COS(N)(=O)=O)[C@@H](O)[C@H]3O)n2n1` (racemic) [Compound I-063, (rac)-((1R,2R,3S,4R)-4-{[2-(5-tert-butyl-2-methoxyphenyl)pyrazolo[1,5-a]pyrimidin-7-yl]amino}-2,3-dihydroxycyclopentyl)methyl rel-sulfamate] the “% inhibition @0.111 μM” value was 100%.

Same assay, conditions: human UAE

`NS(=O)(=O)OC[C@H]1C[C@@H](Nc2ccnc3cc(-c4cccc5c4oc4ccccc45)nn23)[C@H](O)[C@@H]1O` [Compound I-103, (s.e.)-((1R,2R,3S,4R)-4-(2-(dibenzo[b,d]furan-4-yl)pyrazolo[1,5-a]pyrimidin-7-ylamino)-2,3-dihydroxycyclopentyl)methyl sulfamate] and `COc1ccc(-c2cc3nccc(N[C@@H]4C[C@H](COS(N)(=O)=O)[C@@H](O)[C@H]4O)n3n2)c2ccccc12` [Compound I-106, (s.e.)-((1R,2R,3S,4R)-2,3-dihydroxy-4-(2-(4-methoxynaphthalen-1-yl)pyrazolo[1,5-a]pyrimidin-7-ylamino)cyclopentyl)methyl sulfamate] cannot be ordered by pIC50: over 8.00 for the first, over 8.00 for the second.

`CC(C)Oc1ccc2ccccc2c1-c1cc2nccc(N[C@@H]3C[C@H](COS(N)(=O)=O)[C@@H](O)[C@H]3O)n2n1` [Compound I-109, (s.e.)-((1R,2R,3S,4R)-2,3-dihydroxy-4-(2-(2-isopropoxynaphthalen-1-yl)pyrazolo[1,5-a]pyrimidin-7-ylamino)cyclopentyl)methyl sulfamate] and `NS(=O)(=O)OC[C@H]1C[C@@H](Nc2ccnc3cc(-c4cccc5cc(C(F)F)ccc45)nn23)[C@H](O)[C@@H]1O` [Compound I-111, (s.e.)-((1R,2R,3S,4R)-4-(2-(6-(difluoromethyl)naphthalen-1-yl)pyrazolo[1,5-a]pyrimidin-7-ylamino)-2,3-dihydroxycyclopentyl)methyl sulfamate] cannot be ordered by pIC50: over 8.00 for the first, over 8.00 for the second.
